Reference: US8163287B2, “Combination therapy of her expressing tumors” (Genentech, Inc., priority 2005, dated 2012)

How the values were obtained:
[1] = test system: lung adenocarcinoma designated LXFA 629; assay: Antitumor activity in the LXFA 629 xenograft; format: in vivo, NMRI nu/nu nude mice; conditions: each agent alone; pertuzumab i.p. 100 mg/kg, erlotinib orally 25 mg/kg
Text: (§1) The tumor models were established by implanting tumor tissues obtained from human patients into randomized NMRI nu/nu nude mice (Oncotest GmbH, Freiburg, Germany) and tumors were propagated until stable tumor growth behavior was observed. After removal of the tumor from the donor mice, the tumor was cut into fragments (2 mm diameter) and placed in RPMI 1640 culture medium until subcutaneous implantation in the mice. The tumor fragments (two per mouse) were transplanted by tweezers. The mice were monitored daily.
(§2) The substance was diluted with a buffer containing 10 mM L-histidine, 240 mM sucrose, 0.02% polysorbate 20 pH 6 (HCl). The solutions were prepared fresh daily. Erlotinib was delivered as a ready-to-use formulation dissolved in 6% captisol.
Erlotinib was administered orally (25 mg/kg). […]
(§3) The antitumor effect was evaluated following maximum tumor inhibition versus the control group.
Tumor volumes were determined by two-dimensional measurement with a caliper at the day of randomization (day 0) and then 2-3 times weekly. The tumor volume was calculated using the following formula: Tumor Volume=(a×b^2)×0.5, […]
Relative tumor volumes (RTV) were calculated for each individual tumor, by dividing the tumor volume on day X (Vx) by the tumor volume on day 0 (V0) multiplied by 100%. The tumor volume of a treatment group was expressed as the median RTV of all mice of the group. […]

[2] = test system: human lung, breast and ovarian cancer xenograft models; assay: Antitumor activity in human cancer xenograft models (26 tumor xenografts); format: in vivo, NMRI nu/nu nude mice; conditions: for tumors responsive to both erlotinib and pertuzumab: of 26 tumors (12%); for tumors that did not respond to treatment with either pertuzumab or erlotinib: of the 26 tumors tested (42%), pertuzumab i.p. 100 mg/kg, erlotinib orally 25 mg/kg
Text: as §1, §2
Erlotinib was administered orally (25 mg/kg). The control mice received the vehicle by the same procedure and on the same schedule as the test compound.
as §3
Tumor volumes were determined by two-dimensional measurement with a caliper at the day of randomization (day 0) and then 2-3 times weekly. The tumor volume was calculated using the following formula: Tumor Volume=(a×b^2)×0.5,
where a and b represent two perpendicular tumor diameters, a=length (longer diameter), b=width (shorter diameter). All mice of a treatment group were sacrificed when the tumors reached mean diameters of approximately 16 mm.
Relative tumor volumes (RTV) were calculated for each individual tumor, by dividing the tumor volume on day X (Vx) by the tumor volume on day 0 (V0) multiplied by 100%. The tumor volume of a treatment group was expressed as the median RTV of all mice of the group. Median RTV volumes were used for drawing growth curves and treatment evaluation.
Optimal tumor growth inhibition at a particular day within the experimental period was calculated from the median RTV values of the test versus control groups multiplied by 100% (T/C 100%).
Relative tumor volume (Tx/T0) was defined as the median relative tumor volume of the test group on day X divided by the medium relative tumor volume of the test group on day 0, multiplied by 100.
T/C % and Tx/T0 were used for activity rating of the levels of efficacy, which were defined as follows: […]

[3] = cited from earlier work
[4] = test system: incurable, locally advanced, recurrent or metastatic solid tumors; conditions: cited from earlier work

| Compound | activity rating (response to monotherapy) [1] | NSCLC tumors that responded to erlotinib but not to pertuzumab ([2]; NSCLC only, of 21 (23%)) [tumors] | NSCLC tumors with no response to pertuzumab or erlotinib monotherapy ([2]; NSCLC only, out of the 21 tumors tested (43%)) [tumors] | tumors responsive to both erlotinib and pertuzumab ([2]; monotherapy) [tumors] | tumors moderately responsive to erlotinib, but not pertuzumab ([2]; monotherapy, of 26 tumors (27%)) [tumors] | tumors that did not respond to treatment with either pertuzumab or erlotinib ([2]; monotherapy) [tumors] | NSCLC tumors that responded to pertuzumab but not erlotinib ([2]; NSCLC only, of 21 (14%)) [tumors] | pharmacokinetics (dose linearity) ([3]; doses of 2.0-15 mg/kg) | antibodies to pertuzumab ([3]; patients) | confirmed partial responses ([4]; Phase I, single agent) | tumor regression achieved ([4]; of 20 patients evaluable for response) [patients] | tolerability ([4]; patients, intravenously every 3 weeks) |
| --- | --- | --- | --- | --- | --- | --- | --- | --- | --- | --- | --- | --- |
| C#Cc1cccc(Nc2ncnc3cc(OCCOC)c(OCCOC)cc23)c1 [erlotinib, N-(3-ethynylphenyl)-6,7-bis(2-methoxyethoxy)-4-quinazolinamine] | moderate response | 5 | 9 | 3 | 7 | 11 |  |  |  |  |  |  |
| pertuzumab: antibody comprising the light and heavy chain amino acid sequences of SEQ ID NOS. 11 and 12; HER dimerization inhibitor |  |  |  | 3 |  | 11 | 3 | linear | not detected | Two | 3 | generally well tolerated |
